In patent US9364543B2, “Visible light curable hydrogels and methods for using” (Indiana University Research and Technology Corporation, priority 2012, dated 2016):
Read-outs that look alike come from different tables or passages of the source.

Assays:
[1] = cited from earlier work
[2] = cited from earlier work; remark: listed apart in the source
[3] = Eosin-Y release and retention in thiol-ene hydrogels; type: physicochemical; settings: for eosin-Y retention in thiol-ene hydrogels: after 48 hours of swelling
Description: EXAMPLE. Eosin-Y retention: PEG4NB-DTT hydrogel discs (8 mm in diameter and 1 mm in height) are fabricated. Immediately after polymerization, each hydrogel (8 mm in diameter and 1 mm in height) is immersed into a scintillation vial containing 2 mL of ddH2O. Three separate samples are prepared per experimental condition. These scintillation vials are capped tightly and stored at 37° C. on an orbital shaker. At specific time points, these vials are swirled manually to ensure homogeneous mix and 200 μL of solution is transferred to a well of a transparent 96-well plate. The buffer is changed at every time point. The absorbance (at 515 nm) of the collected samples is determined using a microplate reader (Biotek). Eosin-Y retention was calculated by generating a standard curve prepared from a series of known eosin-Y concentrations (0.02 mM being the highest).

[4] = post-gelation, pH 7.4 PBS, FIG. 10

Row | time in which most of the eosin-Y was released from the hydrogel [3, 4] [h] | time to complete release of eosin-Y from the hydrogel [3, 4] [h] | eosin-Y retention in thiol-ene hydrogels ([3]; starting eosin-Y concentration 0.1 mM) [µmol] | eosin-Y retention in thiol-ene hydrogels ([3]; starting eosin-Y concentration 2.0 mM) [µmol] | Structure (SMILES) | water solubility [1] [wt %] | molar absorptivity (ε) ([2]; at 365 nm) [M⁻¹ cm⁻¹] | molar absorptivity (ε) ([2]; at 405 nm) [M⁻¹ cm⁻¹]
1 | – | – | – | – | CC(C)(O)C(=O)c1ccc(OCCO)cc1 [I-2959] | < 0.5 | < 10 | –
2 | – | – | – | – | Cc1cc(C)c(C(=O)P(=O)([O-])c2ccccc2)c(C)c1.[Li+] [LAP, lithium arylphosphinate] | > 5 | ~200 | ~30
3 | 0.5 | 6 | ~0.004 | ~0.03 | O=C([O-])c1ccccc1-c1c2cc(Br)c(=O)c(Br)c-2oc2c(Br)c([O-])c(Br)cc12.[Na+].[Na+] [eosin-Y, Eosin-Y disodium salt] | – | – | –
